{"source": "patent US10292949B2", "about": "“Pharmaceutical composition comprising rimeporide for treating diseases associated with insulin resistance and β-cell dysfunction” (Merck Patent GmbH, priority 2008, dated 2019)", "type_in_all_cases": "in vivo, rat", "key": {"[1]": {"system": "Obese, insulin resistant ZF (fa/fa) rats", "assay": "Pharmacological Study Report I: random and fasting blood glucose and plasma insulin levels", "settings": "Compound A 150 mg/kg gavage twice daily, Compound B 40 mg/kg/day in chow", "protocol": "Obese, insulin resistant ZF (fa/fa) rats, which are treated from the age of 8-12 weeks, were used as IR model. Rats were housed with a 12-h light/dark cycle and free access to food and water unless otherwise noted. Studies were approved by the Institutional Animal Care and Use Committee. There were a total of 18 animals in the study (8 week-old males, provided by Charles River). Animals were randomized into 3 groups (vehicle group, Compound A group, Compound B group, n=6 per group) based on random glucose level at the beginning of the study: • Group 1: ZF rats (fa/fa) (n=6), compound A (150 mg/kg via gavage) • Group 2: ZF rats (fa/fa) (n=6), compound B (40 mg/kg/day as admixture to the chow) • Group 3: ZF rats (fa/fa) (n=6), vehicle treatment (control chow, vehicle gavage)\nGroup 1 and 3 animals were treated with compound A or vehicle (water) for 4 weeks (from age 8-12 weeks) via oral gavage, twice daily. Chow containing compound B was fed to Group 2 ad lib. Group 1 and Group 3 were fed with chow without compound B ad lib.\nRandom morning blood was withdrawn from ad libitium fed rats by a small cut in the tip of the tail. Blood was collected in heparinized tubes. Blood glucose concentrations were measured as per study design using a One-Touch glucometer (Lifescan Inc, Milptias, Calif.). Blood samples were placed on ice and centrifuged, and plasma stored at −20° C. until insulin was assayed. Rat plasma insulin concentration was measured with rat-specific ELISA kit (Crystal Chem Inc, Downers Grove, Ill.).\nRandom morning blood glucose levels were measured weekly between 9-11 a.m.\nAt the end of the study, rats were fasted for 4 hours and glucose and insulin level were measured."}, "obese Zucker fa/fa rats [2]": {"system": "obese Zucker fa/fa rats", "assay": "Pharmacological Study Report II: HbA1c levels", "settings": "Mean ± SD; for Base line HbA1c: baseline; for Change in HbA1c: change over the 4 week treatment period; for Week 4 HbA1c: week 4 of treatment", "protocol": "(§1) Thirty-six obese Zucker fa/fa and six lean Zucker fa/? male rats obtained from Charles River, were housed under normal vivarium conditions on a 12 hour light/dark cycle. The rats were kept two to a cage with food and water available ad lib, except during the weekly, 4 hour fasts. Water continued to be available during these fasts.\n(§2) Compound A corresponds to Cariporide. Compound B corresponds to 2-Methyl-4,5-di-(methylsulfonyl)-benzoyl-guanidine hydrochloride hydrate. Compounds A and B were supplied in powder form by Merck Serono. Drugs were incorporated into a pelleted diet (LabDiet, 5001) by Research Diets, Inc (New Brunswick, N.J.) at concentrations of 0.44 g/kg or 0.88 g/kg of diet to yield approximate doses of 40 or 80 mg/kg. The concentration was calculated based on the assumption that a 300 g rat would eat about 30 g/d of chow. The same chow, but without drug, was fed to rats of both the lean and fa/fa control group animals.\nOne week prior to the start of the study, all rats were weighed. After a 4 hour fast, a blood sample was obtained for the determination of blood glucose, insulin, and glycosylated hemoglobin levels (HbA1c). Animals were then sorted on the basis of these parameters into the groups listed below. Rats were eight weeks of age at the onset of treatment.\n(§3) • 1. ZF rats (fa/fa) (n=6) chow without drug • 2. ZF rats (fa/fa) (n=6) compound A (40 mg/kg/day) • 3. ZF rats (fa/fa) (n=6) compound A (80 mg/kg/day) • 4. ZF rats (fa/fa) (n=6) compound B (40 mg/kg/day) • 5. ZF rats (fa/fa) (n=6) compound B (80 mg/kg/day) • 6. lean Zucker rats (fa/?) (n=6) chow without drug Dosing Regime\nTreatment appropriate chow was continuously available for 4 weeks except during scheduled 4 h fasts conducted once per week.\nHbA1c level were determined using a DCA 2000 analyzer (Bayer Healthcare LLC, Elkhart Ind.) prior to beginning the study and again at the end of the 4th week treatment period."}, "obese Zucker fa/fa rats [3]": {"system": "obese Zucker fa/fa rats", "assay": "Pharmacological Study Report II: 2H-glucose disposal test (2H-GDT) on Days 0, 14 and 28", "protocol": "as §1, §2, §3\nInsulin sensitivity (SI) and pancreatic compensation (PC) were measured by conducting ^2H-Glucose disposal test on Days 0, 14 and 28.\nTime −4 h: Before the fast was begun on the morning of the GDT, a blood sample was taken to determine the random glucose level (see above). An additional blood sample was collected to determine the baseline ^2H2O and ^18O enrichments. The rats were weighed and the 4 h fast was begun. Water was available during the fast.\nTime −3 h: One 1 hour after the start of the fast, 1.75 mg/g body weight of 10% H2^18O was administered by oral gavage (^2H2O-free H2O^18 water; 10% ^18O atom from Spectra; Cat. No 51350).\nTime 0: 4 hours after the start of the fast, the blood glucose and insulin levels were determined. Rats received 4 ml/kg of a 50% glucose solution (comprised of 25% [6,6-^2H2] glucose and 25% D-glucose) by oral gavage.\nAt times 15, 30, 60 and 90 min post glucose challenge, blood glucose concentrations were again determined by a glucometer reading from tail vein blood. Additional blood samples were collected for insulin determinations. At 60 and 90 min post glucose challenge, whole blood was collected to determine the ^2H2O and H2^18O enrichments. All blood samples were centrifuged and the plasma was stored at −20° C. until assayed. The deuterium and oxygen-18 isotope enrichments of body water were determined by IRIS analysis of the water distillate of the plasma samples.\n^2H2O enrichment was converted to mmol by multiplying enrichment (^2H2O APE) by the total body water pool size and dividing by 20 (molecular weight of ^2H2O). Total ^2H2O produced was calculated as the percent of the [6,6-^2H2] glucose load administered. Plasma insulin and glucose areas under the curve (AUC 60 min) were calculated using the trapezoidal method (GraphPad Prism).\nTwo parameters were calculated from the ^2H-GDT: • 1. Insulin sensitivity index (SI)=^2H2O production (% load)/(glucose AUC×insulin AUC). • 2. Pancreatic compensation (PC)=the absolute ^2H2O production as a percent of total [6,6-^2H2] glucose load (% load)/the integrated glucose response (glucose AUC; to correct for insulin-independent utilization). Statistics\nOverall results of glucose and insulin measures were analyzed by a 2 way repeated measures ANOVA using drug and time (repeated) as factors. The primary analysis was followed by Bonferroni posttests to compare all groups. Data are considered significant at p<0.05. AUC 60 min values for glucose and insulin were analyzed by 1 way ANOVA followed by Tukey's comparison of all groups."}, "[4]": {"settings": "40 and 80 mg/kg (neither dose), 4 weeks"}}, "data": [{"smiles": "CC(C)c1ccc(C(=O)NC(=N)N)cc1S(C)(=O)=O", "note": "[Compound A, Cariporide]", "values": [{"measurement": "Random morning blood glucose level vs vehicle group", "setting": "[1]; 4 weeks", "result": "trended towards lower glucose level"}, {"measurement": "Fasting glucose levels, post vs pre treatment", "setting": "[1]; 4 h fast, after 4 weeks", "result": "trended towards lower values post treatment"}, {"measurement": "Fasting insulin levels compared to pre-treatment levels", "setting": "[1]; 4 h fast, after 4 weeks", "result": "significantly lower"}, {"measurement": "Base line HbA1c", "setting": "obese Zucker fa/fa rats [2]; 40 mg/kg group", "result": "4.0 ± 0.5", "unit": "%"}, {"measurement": "Base line HbA1c", "setting": "obese Zucker fa/fa rats [2]; 80 mg/kg group", "result": "3.9 ± 0.4", "unit": "%"}, {"measurement": "Change in HbA1c", "setting": "obese Zucker fa/fa rats [2]; 40 mg/kg", "result": "0.4 ± 0.6", "unit": "%"}, {"measurement": "Change in HbA1c", "setting": "obese Zucker fa/fa rats [2]; 80 mg/kg", "result": "0.4 ± 0.9", "unit": "%"}, {"measurement": "Week 4 HbA1c", "setting": "obese Zucker fa/fa rats [2]; 40 mg/kg in chow", "result": "4.4 ± 0.2", "unit": "%"}, {"measurement": "Week 4 HbA1c", "setting": "obese Zucker fa/fa rats [2]; 80 mg/kg in chow", "result": "4.4 ± 0.52", "unit": "%"}, {"measurement": "Glucose level at the 90 min time point of the 2H-GDT vs fa/fa vehicle", "setting": "obese Zucker fa/fa rats [3]; 40 mg/kg, 4 weeks of treatment", "result": "elevated above that of the fa/fa vehicle treated rats"}, {"measurement": "Blood glucose and insulin concentrations in response to glucose challenge (2H-GDT)", "setting": "obese Zucker fa/fa rats [3]; 4 weeks after start of treatment, 40 and 80 mg/kg", "result": "continued to have elevated"}, {"measurement": "Glucose tolerance", "setting": "obese Zucker fa/fa rats [3]; 4 weeks of treatment", "result": "did not improve"}, {"measurement": "Glucose levels (either fasting or in response to challenge)", "setting": "obese Zucker fa/fa rats [3]; [4]", "result": "Neither dose of Compound A significantly improved"}, {"measurement": "Insulin sensitivity (SI)", "setting": "obese Zucker fa/fa rats [3]; [4]", "result": "Neither dose of Compound A significantly improved"}, {"measurement": "Pancreatic compensation (PC)", "setting": "obese Zucker fa/fa rats [3]; [4]", "result": "Neither dose of Compound A significantly improved"}, {"measurement": "Glucose or insulin response to glucose challenge (2H-GDT)", "setting": "obese Zucker fa/fa rats [3]; after 2 weeks of treatment, 40 and 80 mg/kg", "result": "did not affect"}]}]}
